# Values of other authors in patent US20040005304A1, “Novel compositions and methods for treating neurological disorders and associated gastrointestinal conditions” (MAK Wood, Inc., priority 2002, published 2004).
# Tested on: DPPIV
# Settings: cultured mouse intestinal wall cells (enterocyte cells)
structure (smiles),measurement,value
O=C[C@H](O)[C@@H](O)[C@@H](O)[C@H](O)CO [galactose],expression of DPPIV,increase the expression of DPPIV
